The record followed here is patent publication US10478435B2, “Use of CRAC channel inhibitors for the treatment of stroke and traumatic brain injury” (CalciMedica, Inc., priority 2015, dated 2019).

The subject of the assay is BV2 cells. Briefly: Intracellular calcium accumulation in BV2 cells by live fluorescence microscopy with a calcium fluorescent probe. The format is cell-based. The settings on record: Compound at 10 uM, FIG. 7. The method, then:
Described herein, in some embodiments CRAC channel inhibitors are neuroprotectants in brain ischemia and related conditions. A neuron cell line (Neuro-2A, N-2A) was either cultured alone or in co-culture with microglial BV2 cells. Cells were exposed to a cycle of 2 h oxygen glucose deprivation (OGD) plus 22 h reoxygenation in the absence or presence of inhibitor (concentrations 1-50 μM). Cell viability was determined using quantitative calorimetric MTT assay and live/dead assay using immunofluorescence imaging. Toll-like receptor (TLR)-3 and -4 agonists induced inflammatory responses in microglia leading to increased nitric oxide (NO) generation as determined by the Greiss reagent. Intracellular calcium was determined by live fluorescence microscopy using a calcium fluorescent probe. Peroxide levels were measured as an indicator of oxidative stress. CRAC channels proteins (STIM1 & ORAI1), phosphoactive stress kinase JNK1/2, iNOS and expression was determined by immunoblotting assays. NFκB, NFAT and CREB transcription factors activation was measured by phosphorylation and nuclear translocation. […] The functional activity of the CRAC channels was evaluated by the effect on intracellular calcium accumulation in BV2 cells. […]
Fluorescence-based A neuron cell line (Neuro-2A, N-2A) was either cultured alone or in co-culture with microglial BV2 cells. […]
For orientation: Calcium assays in cells follow changes in intracellular calcium, usually with a dye or a luminescent sensor.

On to `Cc1nc2cc(C)c(-c3cnc(NC(=O)c4c(F)ccc(F)c4F)s3)cc2o1` [Compound D, N-(5-(2,5-dimethylbenzo[d]oxazol-6-yl)thiazol-2-yl)-2,3,6-trifluorobenzamide], for which the “LPS activated calcium accumulation” value was “blunts LPS activated calcium accumulation”.
